Here are results for 22 molecules from publication PMC7534897 (Bioorganic & Medicinal Chemistry Letters, 2020).

In assay [1] the test system is Enterovirus 71 (Tainin/4643/98 strain). Kind of assay: Inhibition of EV-A71 replication in Vero 76 cells. Format: cell-based, Enterovirus A71. Particulars: for EC50: Enterovirus A.
The next assay deals with A1 adenosine receptor. Particulars: cited from earlier work.
In assay [2] the test system is Enterovirus 68 (US/KY/14–18953 strain). The assay can be described thus: Inhibition of enterovirus 68 in RD cells. The class given is cell-based. To be noted: Enterovirus D, read-out: EC50/90 values against enterovirus 68, range.
For assay [3], the system named is coxsackie virus B3, enterovirus 68 and poliovirus 1. Kind of assay: organism not typed. To be noted: read-out: EC50 values, range over three viruses. Format: cell-based.
The next assay concerns the target A3 adenosine receptor. Particulars: read-out: Ki, A3 adenosine receptor; binds as an agonist; cited from earlier work.
A further assay deals with EV-71A. To be noted: cited from earlier work.
The next assay concerns EV-A71. Particulars: read-out: EC50, EV-A71; cited from earlier work.

Molecules are shown by their SMILES. Converted amounts (≈) assume the structure as drawn. Where two headings read alike, the source gives them in different places.

As for `CC(C)[C@@H](Nc1nc(Cl)nc2c1ncn2[C@H]1[C@H](O)[C@H](O)[C@]2(CN=[N+]=[N-])C[C@H]12)C1CC1` [Compound 51, (1R,2R,3S,4R,5S)-1-(Azidomethyl)-4-(2-chloro-6-((1-cyclopropyl-2-methylpropyl)amino)-9H-purin-9-yl)bicyclo[3.1.0]hexane-2,3-diol], the “Activity against EV-A71 in words” value in assay [1] was “intermediate potency”.

For `CC(C)[C@H](Nc1nc(Cl)nc2c1ncn2[C@H]1[C@H](O)[C@H](O)[C@]2(CO)C[C@H]12)C1CC1` [Compound 21], the “Activity against EV-A71 in words” value in assay [1] is reported as “Intermediate potency”.

Regarding `CC(C)[C@@H](Nc1nc(Cl)nc2c1ncn2[C@H]1[C@H](O)[C@H](O)[C@]2(CCl)C[C@H]12)C1CC1` [Compound 49, (1S,2R,3S,4R,5S)-4-(2-Chloro-6-((1-cyclopropyl-2-methylpropyl)amino)-9H-purin-9-yl)-1-(chloromethyl)bicyclo[3.1.0]hexane-2,3-diol], the “Activity against EV-A71 in words” value in assay [1] is given as “intermediate potency”.

On to `CC[C@H](Nc1nc(Cl)nc2c1ncn2[C@H]1[C@H](O)[C@H](O)[C@]2(CO)C[C@H]12)C1CC1` [Compound 27], for which the EC50 in assay [1] (Vero 76, read-out: Visual EC50) came to 16 µM.

`CCOC(=O)[C@@]12C[C@@H]1[C@@H](n1cnc3c(NC(C4CC4)C4CC4)nc(Cl)nc31)[C@H](O)[C@@H]2O` [Compound 44]: the “Activity against EV-A71 in words” value in assay [1] was “inactive”.

For the molecule `NC(=O)c1ncn([C@H]2[C@H](O)[C@H](O)[C@]3(CO)C[C@H]23)n1` [Compound 9], the “Activity against EV-A71 in words” value in assay [1] (at 50 µM, higher concentrations not tested) is “inactive”.

Take `OC[C@H]1O[C@@H](n2cnc3c(NC(C4CCC4)C4CCC4)nc(Cl)nc32)[C@H](O)[C@@H]1O` [Compound 12]: the Ki at A1 adenosine receptor (read-out: Ki, A1 receptor) was less than 0.01 µM.

`O[C@@H]1[C@H](O)[C@@H]2C[C@@H]2[C@H]1n1cnc2c(NC(C3CCC3)C3CCC3)nc(Cl)nc21` [Compound 42]: in assay [1] (Vero 76, read-out: Visual EC50), the EC50 is greater than 16 µM.

Regarding `CC(C)[C@@H](Nc1nc(Cl)nc2c1ncn2[C@H]1[C@H](O)[C@H](O)[C@]2(CN)C[C@H]12)C1CC1` [Compound 52, (1R,2R,3S,4R,5S)-1-(Aminomethyl)-4-(2-chloro-6-((1-cyclopropyl-2-methylpropyl)amino)-9H-purin-9-yl)bicyclo[3.1.0]hexane-2,3-diol], the “Activity against EV-A71 in words” value in assay [1] was “reduced inhibition”.

For `CSC[C@@]12C[C@@H]1[C@@H](n1cnc3c(N[C@H](C(C)C)C4CC4)nc(Cl)nc31)[C@H](O)[C@@H]2O` [Compound 50, (1S,2R,3S,4R,5S)-4-(2-Chloro-6-((1-cyclopropyl-2-methylpropyl)amino)-9H-purin-9-yl)-1-((methylthio)methyl)bicyclo[3.1.0]hexane-2,3-diol], in assay [1], the “Activity against EV-A71 in words” value is reported as “reduced inhibition”.

As for `CCOC(=O)c1ccc(OCCC2CCN(c3ccc(C)nn3)CC2)cc1` [Compound 8, Pirodavir, reference compound], the EC50 lay within 0.056 to 0.22 µg/mL in assay [1] (Vero 76, read-out: EC50 values of pirodavir, range (neutral red)) and 0.036 to 0.32 µg/mL in assay [1] (Vero 76, read-out: EC50 values of pirodavir, range (visual)).

For `CC(C)[C@@H](Nc1nc(Cl)nc2c1ncn2[C@H]1[C@H](O)[C@H](O)[C@]2(CF)C[C@H]12)C1CC1` [Compound 48, (1S,2R,3S,4R,5S)-4-(2-Chloro-6-((1-cyclopropyl-2-methylpropyl)amino)-9H-purin-9-yl)-1-(fluoromethyl)bicyclo[3.1.0]hexane-2,3-diol], in assay [1], the “Activity against EV-A71 in words” value is given as “intermediate potency”. For the same molecule, the EC50 was 3.6 µM in assay [1] (Vero 76, read-out: Visual EC50) and 8 to 16 µM in assay [2].

Consider `OC[C@@]12C[C@@H]1[C@@H](n1cnc3c(NC(C4CCC4)C4CCC4)nc(Cl)nc31)[C@H](O)[C@@H]2O` [Compound 30], for which the “Activity against EV-A71 in words” value in assay [1] is listed as “prevented inhibition”.

For the molecule `CC(C)[C@@H](Nc1nc(Cl)nc2c1ncn2[C@H]1[C@H](O)[C@H](O)[C@]2(CO)C[C@H]12)C1CC1` [Compound 17], the EC50 in assay [3] fell in the range of 16 to 32 µM. Also, the Ki at A1 adenosine receptor (read-out: Ki, A1 adenosine receptor, binds as an agonist) was 0.103 µM; on A3 adenosine receptor, 1.24 µM.

For `OC[C@@]12C[C@@H]1[C@@H](n1cnc3c(NC(C4CC4)C4CC4)nc(Cl)nc31)[C@H](O)[C@@H]2O` [Compound 16], the “Activity against EV-A71 in words” value in assay [1] was “Intermediate potency”.

With `NC(=O)c1ncn([C@@H]2O[C@H](CO)[C@@H](O)[C@H]2O)n1` [Compound 5, ribavirin], the “IC50, EV-71A viral yield in infected cells” value with EV-71A is reported as 65 µg/mL (≈ 266 µM). Further, in the assay on EV-71A (read-out: IC50, EV-71A viral yield in infected cells), the IC50 was 266 µM.

As to `OC[C@H]1O[C@@H](n2cnc3c(NCc4ccccc4)ncnc32)[C@H](O)[C@@H]1O` [Compound 6, N ^6-benzyl-adenosine], the EC50 in the assay on EV-A71 was 5 µM.

Regarding `CSc1nc(N[C@H](C(C)C)C2CC2)c2ncn([C@H]3[C@H](O)[C@H](O)[C@]4(CO)C[C@H]34)c2n1` [Compound 20, (1R,2R,3S,4R,5S)-4-(6-((1-Cyclopropyl-2-methylpropyl)amino)-2-(methylthio)-9H-purin-9-yl)-1-(hydroxymethyl)bicyclo[3.1.0]hexane-2,3-diol], in assay [1] (Vero 76, read-out: Visual EC50), the EC50 is greater than 100 µM.

`OC[C@H]1O[C@@H](n2cnc3c(NC(C4CC4)C4CC4)ncnc32)[C@H](O)[C@@H]1O` [Compound 10]: in assay [1], the “Activity against EV-A71 in words” value is “inactive”.

`OC[C@H]1O[C@@H](n2cnc3c(NC(C4CCC4)C4CCC4)ncnc32)[C@H](O)[C@@H]1O` [Compound 11]: in assay [1], the “Activity against EV-A71 in words” value was “inactive”. The Ki at A1 adenosine receptor (read-out: Ki, A1 receptor) was less than 0.01 µM.

With `CC[C@@H](Nc1nc(SC)nc2c1ccn2[C@H]1[C@H](O)[C@H](O)[C@]2(CO)C[C@H]12)C1CC1` [Compound 26], in assay [1] (Vero 76, read-out: Visual EC50), the EC50 came out at 16 µM.

Take `O[C@@H]1[C@H](O)[C@@H]2C[C@@H]2[C@H]1n1cnc2c(NC(C3CC3)C3CC3)nc(Cl)nc21` [Compound 31]: in assay [1] (visual and neutral red methods), the “SI (selectivity index) at EV-A71” value is no less than 10. Also, the EC50 in assay [2] was 8 to 16 µM.

As a reminder, the Ki is a dissociation constant, usually derived from enzyme kinetics or from competition with a known ligand. In general, IC50 refers to the concentration that gives 50% inhibition.
